The test system of data set [1] is HeLa. The data set can be described thus: Induction of apoptosis in human HeLa cells assessed as early apoptotic cells incubated at 4 uM for 24 hrs measured by annexin V-PI staining based FITC analysis (reference value: 3.59%). It counts as functional.
For data set [2], the system named is HeLa. The data set can be described thus: Induction of apoptosis in human HeLa cells assessed as necrotic cells incubated at 4 uM for 24 hrs measured by annexin V-PI staining based FITC analysis (reference value: 0.70%). Type of data set: functional.
The test system of data set [3] is HeLa. The data set can be described thus: Induction of apoptosis in human HeLa cells assessed as late apoptotic cells incubated at 6 uM for 24 hrs measured by annexin V-PI staining based FITC analysis (reference value: 1.81%). It counts as functional.
The test system of data set [4] is HeLa. The data set can be described thus: Induction of apoptosis in human HeLa cells assessed as necrotic cells incubated at 6 uM for 24 hrs measured by annexin V-PI staining based FITC analysis (reference value: 0.70%). It counts as functional.
Data set [5] has as its system HeLa. The data set can be described thus: Induction of apoptosis in human HeLa cells assessed as early apoptotic cells incubated at 8 uM for 24 hrs measured by annexin V-PI staining based FITC analysis (reference value: 3.59%). Type of data set: functional.
Data set [6] deals with HeLa. The data set can be described thus: Induction of apoptosis in human HeLa cells assessed as necrotic cells incubated at 8 uM for 24 hrs measured by annexin V-PI staining based FITC analysis (reference value: 0.70%). Type of data set: functional.
Data set [7] relates to HeLa. The data set can be described thus: Induction of apoptosis in human HeLa cells assessed as necrotic cells incubated at 10 uM for 24 hrs measured by annexin V-PI staining based FITC analysis (reference value: 0.70%). Type of data set: functional.
Data set [8] has as its system HeLa. The data set can be described thus: Induction of apoptosis in human HeLa cells assessed as viable cells incubated at 10 uM for 24 hrs measured by annexin V-PI staining based FITC analysis (reference value: 94.2%). It counts as functional. The settings on record: read-out: Activity.
In data set [9] the test system is HeLa. The data set can be described thus: Induction of apoptosis in human HeLa cells assessed as early apoptotic cells incubated at 10 uM for 24 hrs measured by annexin V-PI staining based FITC analysis (reference value: 2.72%). Type of data set: functional.
For data set [10], the system named is HeLa. The data set can be described thus: Induction of apoptosis in human HeLa cells assessed as late apoptotic cells incubated at 10 uM for 24 hrs measured by annexin V-PI staining based FITC analysis (reference value: 2.3%). Type of data set: functional.
In data set [11] the test system is HeLa. The data set can be described thus: Induction of apoptosis in human HeLa cells assessed as viable cells preincubated with PFTalpha followed by compound addition at 10 uM for 24 hrs measured by annexin V-PI staining based FITC analysis (reference value: 94.2%). It counts as functional. Conditions: read-out: Activity.
Data set [12] concerns HeLa. The data set can be described thus: Induction of apoptosis in human HeLa cells assessed as early apoptotic cells preincubated with PFTalpha followed by compound addition at 10 uM for 24 hrs measured by annexin V-PI staining based FITC analysis (reference value: 2.72%). Type of data set: functional.
The test system of data set [13] is HeLa. The data set can be described thus: Induction of apoptosis in human HeLa cells assessed as late apoptotic cells preincubated with PFTalpha followed by compound addition at 10 uM for 24 hrs measured by annexin V-PI staining based FITC analysis (reference value: 2.3%). Type of data set: functional.
Data set [14] has as its system HeLa. The data set can be described thus: Induction of ROS generation in human HeLa cells assessed as increase in ROS level at 20 uM incubated for 1 hrs (reference value: 39.6%). Type of data set: functional.
The test system of data set [15] is HeLa. The data set can be described thus: Induction of ferroptosis in human HeLa cells assessed as disappearance of mitochondrial cristae measured at 6 uM for 24 hrs by transmission electron microscopic analysis. It counts as functional, cell-based.
For data set [16], the system named is HeLa. The data set can be described thus: Induction of ferroptosis in human HeLa cells assessed as downregulation of GPX4 level measured at 4 to 10 uM for 24 hrs by Western blotting analysis. Type of data set: functional, cell-based. The settings on record: dose 4-10 µM.
The subject of the next data set is B16-F10. The data set can be described thus: Induction of ferroptosis in mouse B16-F10 cells assessed as increase in ACSL4 level measured at 4 to 10 uM by Western blotting analysis. The settings on record: dose 4-10 µM. Type of data set: functional, cell-based. Background: In western blotting, separated proteins are transferred to a membrane and probed.
The nature of data set [17]: Toxicity in immunocompetent C57BL/6J mouse allografted with B16-F10 cells assessed as change of organ index in heart administered at 30 mg/kg, ip daily for 14 days by hematoxylin and eosin staining analysis. Type of data set: organism-based. Conditions: in vivo, 336 h, time 14 day.
Data set [18] can be described thus: Toxicity in immunocompetent C57BL/6J mouse allografted with B16-F10 cells assessed as change of organ index in spleen administered at 30 mg/kg, ip daily for 14 days by hematoxylin and eosin staining analysis. Type of data set: organism-based. The settings on record: in vivo, 336 h, time 14 day.
Data set [19] in a line: Toxicity in immunocompetent C57BL/6J mouse allografted with B16-F10 cells assessed as change of organ index in kidney administered at 30 mg/kg, ip daily for 14 days by hematoxylin and eosin staining analysis. Type of data set: organism-based. Conditions: in vivo, 336 h, time 14 day.
Data set [20] can be described thus: Toxicity in immunocompetent C57BL/6J mouse allografted with B16-F10 cells assessed as change of organ index in liver administered at 30 mg/kg, ip daily for 14 days by hematoxylin and eosin staining analysis. Type of data set: organism-based. Conditions: in vivo, 336 h, time 14 day.
The subject of data set [21] is HeLa. The data set can be described thus: Induction of apoptosis in human HeLa cells assessed as early apoptotic cells incubated at 4 uM for 24 hrs measured by annexin V-PI staining based FITC analysis (reference value: 3.94%). Type of data set: functional.
Data set [22] relates to HeLa. The data set can be described thus: Induction of apoptosis in human HeLa cells assessed as necrotic cells incubated at 4 uM for 24 hrs measured by annexin V-PI staining based FITC analysis (reference value: 0.58%). It counts as functional.
Data set [23] concerns HeLa. The data set can be described thus: Induction of apoptosis in human HeLa cells assessed as early apoptotic cells incubated at 8 uM for 24 hrs measured by annexin V-PI staining based FITC analysis (reference value: 3.94%). Type of data set: functional.
In data set [24] the test system is HeLa. The data set can be described thus: Induction of apoptosis in human HeLa cells assessed as early apoptotic cells incubated at 10 uM for 24 hrs measured by annexin V-PI staining based FITC analysis (reference value: 3.94%). Type of data set: functional.
For data set [25], the system named is HeLa. The data set can be described thus: Induction of apoptosis in human HeLa cells assessed as late apoptotic cells incubated at 10 uM for 24 hrs measured by annexin V-PI staining based FITC analysis (reference value: 1.54%). Type of data set: functional.
For data set [26], the system named is HeLa. The data set can be described thus: Induction of apoptosis in human HeLa cells assessed as viable cells incubated at 10 uM for 24 hrs measured by annexin V-PI staining based FITC analysis (reference value: 91.6%). It counts as functional. The settings on record: read-out: Activity.
Data set [27] relates to HeLa. The data set can be described thus: Induction of apoptosis in human HeLa cells assessed as early apoptotic cells incubated at 10 uM for 24 hrs measured by annexin V-PI staining based FITC analysis (reference value: 3.28%). It counts as functional.
Data set [28] relates to HeLa. The data set can be described thus: Induction of apoptosis in human HeLa cells assessed as late apoptotic cells incubated at 10 uM for 24 hrs measured by annexin V-PI staining based FITC analysis (reference value: 3.45%). It counts as functional.
Data set [29] relates to HeLa. The data set can be described thus: Induction of apoptosis in human HeLa cells assessed as early apoptotic cells preincubated with PFTalpha followed by compound addition at 10 uM for 24 hrs measured by annexin V-PI staining based FITC analysis (reference value: 3.28%). Type of data set: functional.
Data set [30] has as its system HeLa. The data set can be described thus: Induction of ROS generation in human HeLa cells assessed as increase in ROS level at 10 uM incubated for 0.5 hrs (reference value: 37.8%). Type of data set: functional.
The subject of data set [31] is HeLa. The data set can be described thus: Induction of ROS generation in human HeLa cells assessed as increase in ROS level at 20 uM incubated for 0.5 hrs (reference value: 37.8%). It counts as functional.
Data set [32] deals with HeLa. The data set can be described thus: Induction of ROS generation in human HeLa cells assessed as increase in ROS level at 20 uM incubated for 1 hrs (reference value: 37.8%). It counts as functional.
Data set [33] concerns HeLa. The data set can be described thus: Induction of ferroptosis in human HeLa cells assessed as decrease in cellular GSH level measured at 6 uM for 24 hrs by transmission electron microscopic analysis. Type of data set: functional, cell-based.

The text below walks through data of ChEMBL document CHEMBL5360653, “Marine Alkaloid Lepadins E and H Induce Ferroptosis for Cancer Chemotherapy” (J Med Chem, 2023).

Calls of active or inactive are those of the source. The calls are words filed in the database; no cut-off is given here.

`CCC/C=C/C=C/C(=O)O[C@@H]1C[C@H]2[C@@H](CCCC[C@H](O)CCC)CCC[C@H]2N[C@H]1C`: the Activity was determined as 4.56% with HeLa [1]; 1.14% in the data set with HeLa [2]; 3.94% in the data set with HeLa [3]; 0.94% with HeLa [4]; 21.1% in the data set on HeLa [5]; 0.5% in the data set on HeLa [6]. Also, the Activity worked out at 2.13% in the data set on HeLa [7]; 31.8% with HeLa [9]; 45.3% with HeLa [10]; 30.5% in the data set with HeLa [12]; 19.5% in the data set on HeLa [13]; 90.1% with HeLa [14]. The Activity result in data set [17], in data set [18], in [19] and in [20] was “Non-Toxic” in each case. Further, the viability at 10 µM in the data set with HeLa [8] was 20.6%; with HeLa [11] it was 46%. The outcome with HeLa [15], in the data set on HeLa [16] and in the data set on B16-F10 was Active.

As for `CCCCC/C=C/C(=O)O[C@@H]1C[C@H]2[C@@H](CCCC[C@H](O)CCC)CCC[C@H]2N[C@H]1C`, the Activity is reported as 5.32% in the data set on HeLa [21]; 0.53% with HeLa [22]; 20.9% in the data set on HeLa [23]; 22.7% in the data set with HeLa [24]; 27.3% with HeLa [25]; 35.6% in the data set on HeLa [27]. The Activity in the data set on HeLa [28] is listed as 31.4%; in the data set on HeLa [29], 31.9%; in the data set on HeLa [30] it was 55.1%; in the data set on HeLa [31], 80.6%; with HeLa [32], 86.9%. For the same compound, the viability at 10 µM in the data set on HeLa [26] worked out at 28%. Further, the result in the data set on HeLa [33] was Active.
